The record followed here is PubChem BioAssay AID1259407 (Chemical Carcinogenesis Research Information System (CCRIS), 2018).

For this data set, the system named is CCRIS mutagenicity, Ames/micronucleus/aberration tests. Kind of data set: CCRIS mutagenicity studies.
Where [1] appears, read: Test System: AMES SALMONELLA TYPHIMURIUM, Strain/Indicator: TA100, Metabolic Activation: NONE, Method: STANDARD PLATE.

SMILES strings stand for the structures. Calls of active or inactive are those of the source. The rule behind the calls is not given here.

As to `CN(C)c1ccc(C(=C2C=CC(=[N+](C)C)C=C2)c2ccccc2)cc1`, the mutagenic call was “inactive; negative” (End Point: IN VIVO MICRONUCLEUS, Test System: PERIPHERAL BLOOD ERYTHROCYTES, Species: MOUSE, Strain/Sex: BIG BLUE B6C3F1/FEMALE, Route: DIET); “inactive; negative” (Test System: AMES SALMONELLA TYPHIMURIUM, Strain/Indicator: TA97A, Metabolic Activation: NONE, Method: STANDARD PLATE); “inactive; negative” (Test System: AMES SALMONELLA TYPHIMURIUM, Strain/Indicator: TA97A, Metabolic Activation: RAT LIVER S-9, 3-METHYLCHOLANTHRENE, PHENOBARBITAL, Method: STANDARD PLATE); “inactive; negative” (Test System: AMES SALMONELLA TYPHIMURIUM, Strain/Indicator: TA98, Metabolic Activation: NONE, Method: STANDARD PLATE); “inactive; negative” (Test System: AMES SALMONELLA TYPHIMURIUM, Strain/Indicator: TA98, Metabolic Activation: RAT LIVER S-9, 3-METHYLCHOLANTHRENE, PHENOBARBITAL, Method: STANDARD PLATE); “active; positive” (Test System: AMES SALMONELLA TYPHIMURIUM, Strain/Indicator: TA98, Metabolic Activation: RAT, LIVER, S-9, Method: STANDARD PLATE). The mutagenic call is “inactive; negative” under setting [1]; “inactive; negative” (Test System: AMES SALMONELLA TYPHIMURIUM, Strain/Indicator: TA100, Metabolic Activation: RAT LIVER S-9, 3-METHYLCHOLANTHRENE, PHENOBARBITAL, Method: STANDARD PLATE); “inactive; negative” (Test System: AMES SALMONELLA TYPHIMURIUM, Strain/Indicator: TA100, Metabolic Activation: RAT, LIVER, S-9, Method: STANDARD PLATE); “active; positive” (Test System: AMES SALMONELLA TYPHIMURIUM, Strain/Indicator: TA100, Method: PREINCUBATION); “inactive; negative” (Test System: AMES SALMONELLA TYPHIMURIUM, Strain/Indicator: TA102, Metabolic Activation: NONE, Method: STANDARD PLATE); “inactive; negative” (Test System: AMES SALMONELLA TYPHIMURIUM, Strain/Indicator: TA102, Metabolic Activation: RAT LIVER S-9, 3-METHYLCHOLANTHRENE, PHENOBARBITAL, Method: STANDARD PLATE). Also, the mutagenic call by setting is: (Test System: AMES SALMONELLA TYPHIMURIUM, Strain/Indicator: TA1535, Metabolic Activation: NONE, Method: STANDARD PLATE) “inactive; negative”; (Test System: AMES SALMONELLA TYPHIMURIUM, Strain/Indicator: TA1535, Metabolic Activation: RAT, LIVER, S-9, Method: STANDARD PLATE) “inactive; negative”; (Test System: AMES SALMONELLA TYPHIMURIUM, Strain/Indicator: TA1537, Metabolic Activation: NONE, Method: STANDARD PLATE) “inactive; negative”; (Test System: AMES SALMONELLA TYPHIMURIUM, Strain/Indicator: TA1537, Metabolic Activation: RAT, LIVER, S-9, Method: STANDARD PLATE) “inactive; negative”; (Test System: CHO/HGPRT, Strain/Indicator: CHO-K1, Metabolic Activation: NONE, Method: STANDARD PLATE) “inactive; negative”; (Test System: CHO/HGPRT, Strain/Indicator: CHO-K1, Metabolic Activation: RAT LIVER S-9, 3-METHYLCHOLANTHRENE, PHENOBARBITAL, Method: STANDARD PLATE) “inactive; negative”.
Turning to `Cc1ccc(CN2C3c4ccccc4-c4ccccc4C32)cc1` (centres undefined), the mutagenic call under setting [1] is “active; positive”.
